Experimental data published in US11970497B2, “Tricyclic AKR1C3 dependent KARS inhibitors” (Novartis AG, priority 2019, dated 2024).

Columns and labels:
[1] = test system: H460 (NRF2 pathway mutant cell line with high AKR1C3 expression); assay: In vitro cell proliferation assay (CellTiter-Glo), H460; format: cell-based; conditions: Homo sapiens, NCI-H460, 72 h; H460 cells, 3 days, CellTiter-Glo, top concentration 10 μM; read-out: H460 Qualified absolute AC50
Summary of the method: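 Luminescent CellTiter-Glo readout after 3-day compound exposure at 37 °C; 8-point 1:5 series, top 10 μM final. Seeding: 800 cells/well for H460, 2000 cells/well for Hara, RPMI-1640 plus 10% FBS. AC50 and percentage activity derived after normalizing to DMSO (1%) and MG132 (30 μM) controls.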

[2] = test system: Hara (NRF2 pathway wild type cell line with low AKR1C3 expression); assay: In vitro cell proliferation assay (CellTiter-Glo), Hara; format: cell-based; conditions: 72 h; Hara cells, 3 days, CellTiter-Glo, top concentration 10 μM; read-out: HARA Qualified absolute AC50
From the text: Cellular Proliferation Assay to Assess Compounds Activity in H460 (NRF2 Pathway Mutant Cell Line with High AKR1C3 Expression) and Hara (NRF2 Pathway Wild Type Cell Line with Low AKR1C3 Expression).
The cell lines A549 and H460 are NRF2 pathway mutant and specifically contain genetic alterations in KEAP1 (A549: G333C, H460: D236H) (Singh A. et al., 2006 PLoS Medicine 3(10) e420). In these cell lines the NRF2 pathway is constitutively active and these cells express high levels of NRF2 protein and NRF2 pathway target gene AKR1C3. […] They have low AKR1C3 expression.
In Vitro Cell Proliferation Assay
Day 1, for H460 800 cells/well or 40 μL of 2×10^4 cells/mL and for Hara 2000 cells/well or 40 μL of 5×10^4 cells/mL medium (RPMI-1640 supplemented with 10% fetal bovine serum and 1% penicillin/streptomycin) were seeded into 384-well tissue culture plates. Day 2, compounds were serially diluted 1:5 to generate 8 point dose response curves and added to cells for a final top concentration of 10 μM. DMSO (1%) control and MG132 (30 μM) controls are added in columns 23 and 24 respectively on each plate for positive and negative control. After incubation for 3 days at 37° C./5% CO2, 30 μl of CellTiter-Glo reagent (Promega) was added and the plates were incubated for 10 min on plate shaker. The amount of luminescence was determined using a Perkin Elmer Envision plate reader. CellTiter-Glo luminescence values of cells treated with DMSO and MG132 controls were used to normalize the data and calculate percentage activity and AC50s of compounds using the Helios Software suite.

Row | SMILES | AC50 [1] [nM] | AC50 [2] [nM]
1 | Nc1c(F)cc(CNC(=O)N2CCC3(CC2)CC(=O)c2cc(F)ccc2N3)cc1F [Example 65, N-(4-amino-3,5-difluorobenzyl)-6′-fluoro-4′-oxo-3′,4′-dihydro-1′H-spiro[piperidine-4,2′-quinoline]-1-carboxamide] | 222 | > 10000
2 | CN(C)c1cccc(CNC(=O)N2CCC3(CC2)CC(=O)c2cc(F)cc(F)c2N3)n1 [Example 66, N-((6-(dimethylamino)pyridin-2-yl)methyl)-6′,8′-difluoro-4′-oxo-3′,4′-dihydro-1′H-spiro[piperidine-4,2′-quinoline]-1-carboxamide] | 223 | > 10000
3 | O=C1CC2(CCN(C(=O)NCc3ccc(F)cc3C(F)(F)F)CC2)Nc2ccc(F)cc21 [Example 67, 6′-fluoro-N-(4-fluoro-2-(trifluoromethyl)benzyl)-4′-oxo-3′,4′-dihydro-1′H-spiro[piperidine-4,2′-quinoline]-1-carboxamide] | 225 | 2300
4 | O=C1CC2(CCN(C(=O)NCc3ccc(F)cc3Cl)CC2)Nc2ccc(F)cc21 [Example 68, N-(2-chloro-4-fluorobenzyl)-6′-fluoro-4′-oxo-3′,4′-dihydro-1′H-spiro[piperidine-4,2′-quinoline]-1-carboxamide] | 226 | 9140
5 | NC(=O)c1cccc(CNC(=O)N2CCC3(CC2)CC(=O)c2cc(F)ccc2N3)c1 [Example 69, N-(3-carbamoylbenzyl)-6′-fluoro-4′-oxo-3′,4′-dihydro-1′H-spiro[piperidine-4,2′-quinoline]-1-carboxamide] | 233 | > 10000
6 | O=C1CC2(CCN(C(=O)NCc3ccc(F)c(OCCO)c3)CC2)Nc2ccc(F)cc21 [Example 70, 6′-fluoro-N-(4-fluoro-3-(2-hydroxyethoxy)benzyl)-4′-oxo-3′,4′-dihydro-1′H-spiro[piperidine-4,2′-quinoline]-1-carboxamide] | 238 | 3550
7 | O=C1CC2(CCN(C(=O)NCc3cc(OCCO)c(F)cc3F)CC2)Nc2ccc(F)cc21 [Example 71, N-(2,4-difluoro-5-(2-hydroxyethoxy)benzyl)-6′-fluoro-4′-oxo-3′,4′-dihydro-1′H-spiro[piperidine-4,2′-quinoline]-1-carboxamide] | 265 | > 10000
8 | Nc1cc(CNC(=O)N2CCC3(CC2)CC(=O)c2cc(F)cc(F)c2N3)ccc1F [Example 73, N-(3-amino-4-fluorobenzyl)-6′,8′-difluoro-4′-oxo-3′,4′-dihydro-1′H-spiro[piperidine-4,2′-quinoline]-1-carboxamide] | 295 | 3480
9 | NS(=O)(=O)c1cccc(CNC(=O)N2CCC3(CC2)CC(=O)c2cc(F)ccc2N3)c1 [Example 74, 6′-fluoro-4′-oxo-N-(3-sulfamoylbenzyl)-3′,4′-dihydro-1′H-spiro[piperidine-4,2′-quinoline]-1-carboxamide] | 305 | > 10000
10 | CCN1c2ccc(F)cc2C(=O)CC12CCN(C(=O)NCc1ccc(F)c(NCCO)c1F)CC2 [Example 75, N-(2,4-difluoro-3-((2-hydroxyethyl)amino)benzyl)-1′-ethyl-6′-fluoro-4′-oxo-3′,4′-dihydro-1′H-spiro[piperidine-4,2′-quinoline]-1-carboxamide] | 306 | > 10000
11 | CN1c2ccc(F)cc2C(=O)CC12CCN(C(=O)NCc1ccc(N)cc1)CC2 [Example 76, N-(4-aminobenzyl)-6′-fluoro-1′-methyl-4′-oxo-3′,4′-dihydro-1′H-spiro[piperidine-4,2′-quinoline]-1-carboxamide] | 309 | > 10000
12 | O=C1CC2(CCN(C(=O)NCc3cc(NCCO)c(F)cc3F)CC2)Nc2ccc(F)cc21 [Example 77, N-(2,4-difluoro-5-((2-hydroxyethyl)amino)benzyl)-6′-fluoro-4′-oxo-3′,4′-dihydro-1′H-spiro[piperidine-4,2′-quinoline]-1-carboxamide] | 311 | > 10000
13 | O=C1CC2(CCN(C(=O)NCc3ccc(F)c(NCCO)c3)CC2)Nc2ccc(F)cc21 [Example 78, 6′-fluoro-N-(4-fluoro-3-((2-hydroxyethyl)amino)benzyl)-4′-oxo-3′,4′-dihydro-1′H-spiro[piperidine-4,2′-quinoline]-1-carboxamide] | 321 | > 10000
14 | Nc1cc(F)c(CNC(=O)N2CCC3(CC2)CC(=O)c2cc(F)ccc2N3)c(F)c1 [Example 80, N-(4-amino-2,6-difluorobenzyl)-6′-fluoro-4′-oxo-3′,4′-dihydro-1′H-spiro[piperidine-4,2′-quinoline]-1-carboxamide] | 347 | > 10000
15 | CN1c2ccc(F)cc2C(=O)CC12CCN(C(=O)NCc1ccc(F)c(C(=O)NCCO)c1)CC2 [Example 82, 6′-fluoro-N-(4-fluoro-3-((2-hydroxyethyl)carbamoyl)benzyl)-1′-methyl-4′-oxo-3′,4′-dihydro-1′H-spiro[piperidine-4,2′-quinoline]-1-carboxamide] | 356 | > 10000
16 | O=C1CC2(CCN(C(=O)NCc3ccc(F)c(CO)c3)CC2)Nc2ccc(F)cc21 [Example 83, 6′-fluoro-N-(4-fluoro-3-(hydroxymethyl)benzyl)-4′-oxo-3′,4′-dihydro-1′H-spiro[piperidine-4,2′-quinoline]-1-carboxamide] | 361 | > 10000
17 | Nc1c(F)ccc(CNC(=O)N2CCC3(CC2)CC(=O)c2cc(F)ccc2N3)c1F [Example 84, N-(3-amino-2,4-difluorobenzyl)-6′-fluoro-4′-oxo-3′,4′-dihydro-1′H-spiro[piperidine-4,2′-quinoline]-1-carboxamide] | 367 | > 10000
18 | C/C=C/CN1c2ccc(F)cc2C(=O)CC12CCN(C(=O)NCc1ccc(F)cc1)CC2 [Example 85, (E)-1′-(but-2-en-1-yl)-6′-fluoro-N-(4-fluorobenzyl)-4′-oxo-3′,4′-dihydro-1′H-spiro[piperidine-4,2′-quinoline]-1-carboxamide] | 371 | 9490
19 | CN1c2ccc(F)cc2C(=O)CC12CCN(C(=O)NCc1ccc(F)cc1NCCO)CC2 [Example 86, 6′-fluoro-N-(4-fluoro-2-((2-hydroxyethyl)amino)benzyl)-1′-methyl-4′-oxo-3′,4′-dihydro-1′H-spiro[piperidine-4,2′-quinoline]-1-carboxamide] | 379 | > 10000
20 | Nc1ccc(CNC(=O)N2CCC3(CC2)CC(=O)c2cc(F)ccc2N3)cc1Cl [Example 87, N-(4-amino-3-chlorobenzyl)-6′-fluoro-4′-oxo-3′,4′-dihydro-1′H-spiro[piperidine-4,2′-quinoline]-1-carboxamide] | 388 | > 10000
21 | Nc1ccc(CNC(=O)N2CCC3(CC2)CC(=O)c2cc(F)ccc2N3)cc1 [Example 89, N-(4-aminobenzyl)-6′-fluoro-4′-oxo-3′,4′-dihydro-1′H-spiro[piperidine-4,2′-quinoline]-1-carboxamide] | 436 | > 10000
22 | CN1c2ccc(F)cc2C(=O)CC12CCN(C(=O)NCc1ccc(F)c(NCCO)c1F)CC2 [Example 91, N-(2,4-difluoro-3-((2-hydroxyethyl)amino)benzyl)-6′-fluoro-1′-methyl-4′-oxo-3′,4′-dihydro-1′H-spiro[piperidine-4,2′-quinoline]-1-carboxamide] | 451 | > 10000
23 | CC(O)c1cc(CNC(=O)N2CCC3(CC2)CC(=O)c2cc(F)ccc2N3C)ccc1F (centres unmarked) [Example 92, 6′-fluoro-N-(4-fluoro-3-(1-hydroxyethyl)benzyl)-1′-methyl-4′-oxo-3′,4′-dihydro-1′H-spiro[piperidine-4,2′-quinoline]-1-carboxamide] | 467 | > 10000
24 | Cn1ncc(Cl)c1CNC(=O)N1CCC2(CC1)CC(=O)c1cc(F)ccc1N2 [Example 93, N-((4-chloro-1-methyl-1H-pyrazol-5-yl)methyl)-6′-fluoro-4′-oxo-3′,4′-dihydro-1′H-spiro[piperidine-4,2′-quinoline]-1-carboxamide] | 5730 | > 10000
25 | C[C@@H](O)CNC(=O)c1cc(CNC(=O)N2CCC3(CC2)CC(=O)c2cc(F)ccc2N3C)ccc1F [Example 94, (R)-6′-fluoro-N-(4-fluoro-3-((2-hydroxypropyl)carbamoyl)benzyl)-1′-methyl-4′-oxo-3′,4′-dihydro-1′H-spiro[piperidine-4,2′-quinoline]-1-carboxamide] | 471 | 9490
